# Data as given in article PMC9132363 (Journal of Medicinal Chemistry, 2022).
# Counter-ions that a name gives are not always drawn. Like-named read-outs stand apart in the source and are kept apart here.
# Key:
# [1] = DPPH radical scavenging assay; type: physicochemical; conditions: for EC50: 80% MeOH, 30 min, 517 nm, read-out: Radical scavenging activity EC50 (DPPH method); for IC50: supplementary CSV
# Protocol: The antioxidant activity was determined by the 2,2-diphenyl-1-picrylhydrazyl hydrate (DPPH) assay.[65]−[67] All the measurements were performed in an 80% MeOH solution, with the final reaction volume being 3 mL. A stock of DPPH solution in DMSO (10^–2 M) was prepared and stored at −20 °C, and the same procedure was performed with the antioxidant solution. Then, the DPPH stock solution was diluted to 2 mL with a final concentration of 150 μM (final volume of 3 mL and final concentration of 100 μM). The antioxidant stock was sequentially diluted to 1 mL at 3, 9, 30, 90, and 300 μM (final volume of 3 mL and final concentrations of 1, 3, 10, 30, and 100 μM). The mixture was incubated at room temperature for 30 min. Once this time had passed, the absorbance was measured in a spectrophotometer at 517 nm. Trolox, caffeic acid, and ferulic acid were used as a standard (1, 3, 10, 30, and 100 μM final concentrations). A blank using 80% MeOH solution instead of the corresponding antioxidant was used in each assay. Two independent measurements of each sample were performed. Data were processed using Origin software, and sigmoidal fitting according to the DoseResp function was performed to extrapolate the IC50 (μM) of each antioxidant.
# [2] = MTT viability assay; type: cell-based, human; conditions: human, HEK293T cells, HEK293T, 16 h, read-out: Cell viability (MTT)
# Protocol: (§1) HEK293T cells were plated in 24-well culture plates (75,000 cells/well) and incubated in a CO2 incubator. The next day, treatment was given according to the experimental requirement. Sixteen hours later, 50 μL of MTT solutions from the stock (5 mg/mL) was added, and cells were incubated in a CO2 incubator in the dark for 2 h. The medium was removed, and formazan crystals formed by the cells were dissolved using 500 μL of DMSO followed by transfer in 96-well plates. The absorbance was read at a 570 nm wavelength on a multiwell plate reader.[70]
# [3] = tested on: HEK293T cells; assay: MTT viability assay; type: cell-based, human; conditions: 20 µM, Table S3
# Protocol: as §1
# [4] = target: ROCK-II (ROKa) (Rattus norvegicus, UniProt Q62868); assay: ROCK inhibition studies (33P-ATP, Long S6 substrate peptide); type: biochemical; conditions: for remaining activity at 10 µM: 0.5 h, supplementary CSV, read-out: ROCK2 activity @ 10microM; for IC50: Table 3, read-out: ROCK2 inhibition IC50; for ROCK2 inhibition potency compared with fasudil: in words
# Chain of ROCK-II (ROKa) (Q62868 2-543 limits assumed): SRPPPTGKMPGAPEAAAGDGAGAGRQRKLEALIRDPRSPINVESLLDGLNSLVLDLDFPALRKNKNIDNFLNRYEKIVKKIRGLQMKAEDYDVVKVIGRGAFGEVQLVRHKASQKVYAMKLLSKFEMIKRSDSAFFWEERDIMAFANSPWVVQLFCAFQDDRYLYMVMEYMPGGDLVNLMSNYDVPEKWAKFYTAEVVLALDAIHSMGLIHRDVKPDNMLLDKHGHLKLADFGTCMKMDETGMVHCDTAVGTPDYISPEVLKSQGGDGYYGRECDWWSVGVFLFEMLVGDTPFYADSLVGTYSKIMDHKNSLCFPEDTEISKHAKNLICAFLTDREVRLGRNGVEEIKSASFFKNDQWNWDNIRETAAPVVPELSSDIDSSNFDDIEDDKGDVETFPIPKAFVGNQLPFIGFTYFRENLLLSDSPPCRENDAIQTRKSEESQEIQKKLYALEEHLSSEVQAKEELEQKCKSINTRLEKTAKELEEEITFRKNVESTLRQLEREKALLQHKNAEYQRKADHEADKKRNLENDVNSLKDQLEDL
# Protocol: ROCK-II (ROKa) (5–20 mU diluted in 50 mM Tris pH 7.5, 0.1 mM EGTA, 0.1% 2-mercaptoethanol, and 1 mg/mL BSA) was assayed against the Long S6 substrate peptide ([…]) in a final volume of 25.5 μL containing 50 mM Tris pH 7.5, 0.1 mM EGTA, 30 μM Long S6 substrate peptide, 10 mM magnesium acetate, and 0.02 mM [33P-g-ATP] (50–1000 cpm/pmol) and incubated for 30 min at room temperature. Assays were stopped by addition of 5 μL of 0.5 M (3%) orthophosphoric acid and then harvested onto P81 Unifilter plates with a wash buffer of 50 mM orthophosphoric acid.
# [5] = tested on: NRF2; assay: 3×ARE-LUC luciferase reporter assay; type: cell-based, human; conditions: for fold induction at 20 µM / fold induction at 6 µM / fold induction at 60 µM: Homo sapiens, 16 h; for activation of the NRF2 reporter: in words, 6, 20 and 60 μM; for NRF2 induction, CD (concentration needed to double luciferase expression): 3×ARE-LUC
# Protocol: Transient transfections of HEK293T cells were performed with the expression vectors for TK-Renilla (Promega, Madison, […]) and the expression vector ARE-LUC (Dr. J. Alam, Dept. of Molecular Genetics, Ochsner Clinic Foundation, New Orleans, LA). Cells were seeded on 24-well plates (75,000 cells per well), cultured for 16 h, and transfected using calcium phosphate. Eight hours after transfections, cells were treated with 3 different concentrations of the compounds (6, 20, and 60 μM). […] After 16 h, the cells were lysed and assayed with a dual-luciferase assay system (Promega) according to the manufacturer’s instructions. Relative light units were measured in a GloMax 96 microplate luminometer with dual injectors (Promega).
# [6] = 20 microM, supplementary CSV, read-out: NRF2 induction @ 20 microM (fold change)
# [7] = HEK-293T, HEK293T, read-out: Luciferase assay response
# [8] = HEK-293T, 20 µM, HEK293T, read-out: Luciferase assay response
SMILES,EC50 [1] [µM],"viability at 16 h, 20 µM [2] [%]","viability at 16 h, 60 µM [2] [%]",MTT (%) [3] [%],remaining activity at 10 µM [4] [%],IC50 [4] [µM],"fold induction at 20 µM [5, 6]","fold induction at 6 µM [5, 7]","fold induction at 20 µM [5, 8]","fold induction at 60 µM [5, 7]",activation of the NRF2 reporter [5],melting point [°C],IC50 [1] [µM],ROCK2 inhibition potency compared with fasudil [4],"NRF2 induction, CD (concentration needed to double luciferase expression) ([5]; HEK293T) [µM]"
"COc1cc(/C=C/C(=O)N2CCCN(S(=O)(=O)c3cccc4cnccc34)CC2)ccc1O [Compound 1f, 3-(4-Hydroxy-3-methoxyphenyl)-1-(4-(isoquinolin-5-ylsulfonyl)-1,4-diazepan-1-yl)prop-2-en-1-one]",9.61,93.9 ± 2.27,77.9 ± 3.9,< 20,30.3 ± 7.4,2.61,0.8 ± 0.02,0.7 ± 0.06,0.8 ± 0.02,1.2 ± 0.08,–,–,–,–,–
"O=S(=O)(c1cccc2cnccc12)N1CCCNCC1 [fasudil, 5-((1,4-Diazepan-1-yl)sulfonyl)isoquinoline, reference compound]",–,92.1 ± 3.71,83.43 ± 0.715,–,–,–,1 ± 0.06,1.3 ± 0.21,1 ± 0.06,2.9 ± 0.49,low activity,–,–,–,–
"O=C(O)/C=C/c1ccc(O)c(O)c1 [caffeic acid, reference compound]",12.1,–,–,–,–,–,–,–,–,–,–,–,–,–,–
"COc1cc(/C=C/C(=O)O)ccc1O [ferulic acid, reference compound]",22.8,–,–,–,–,–,–,–,–,–,–,–,–,–,–
"COc1cc(CCC(=O)N2CCCN(S(=O)(=O)c3cccc4cnccc34)CC2)ccc1O [Compound 1h, 3-(4-Hydroxy-3-methoxyphenyl)-1-(4-(isoquinolin-5-ylsulfonyl)-1,4-diazepan-1-yl)propan-1-one]",12,99.4 ± 1.78,88.2 ± 2.43,–,27.4 ± 1.4,0.9,0.9 ± 0.02,1.2 ± 0.09,0.9 ± 0.02,1.2 ± 0.03,–,–,–,–,–
"C[S+]([O-])CCCCN=C=S (centres unmarked) [SFN, sulforaphane, reference compound]",–,–,–,–,–,–,–,4 ± 0.08,–,–,–,–,–,–,–
"COc1cc(/C=C/C(=O)N2CCN(S(=O)(=O)c3cccc4cnccc34)CC2)ccc1O [Compound 1e, 3-(4-Hydroxy-3-methoxyphenyl)-1-(4-(isoquinolin-5-ylsulfonyl)piperazin-1-yl)prop-2-en-1-one]",6.42,60.5 ± 2.73,55.9 ± 1.08,–,47 ± 15.1,2.33,1.1 ± 0.16,1.2 ± 0.11,1.1 ± 0.16,1.2 ± 0.14,–,> 230,–,–,–
"COC(=O)/C=C/C(=O)OC [DMF, dimethyl fumarate, reference compound]",–,90.4 ± 6.96,92.21 ± 0.462,–,–,–,4.9 ± 0.35,–,4.9 ± 0.35,–,–,–,–,–,–
"O=C(CCc1ccc(O)c(O)c1)N1CCN(S(=O)(=O)c2cccc3cnccc23)CC1 [Compound 1c, 3-(3,4-Dihydroxyphenyl)-1-(4-(isoquinolin-5-ylsulfonyl)piperazin-1-yl)propan-1-one]",10.1,104 ± 1.2,104.8 ± 0.434,–,32.6 ± 10.3,0.32,2.2 ± 0.09,1.7 ± 0.09,2.2 ± 0.09,5.8 ± 0.23,dose-dependent activation,158 to 159,11.9 ± 3,potency similar to the reference compound,15
"COc1cc(CCC(=O)N2CCN(S(=O)(=O)c3cccc4cnccc34)CC2)ccc1O [Compound 1g, 3-(4-Hydroxy-3-methoxyphenyl)-1-(4-(isoquinolin-5-ylsulfonyl)piperazin-1-yl)propan-1-one]",10.3,93.7 ± 2.2,87.5 ± 2.32,–,53 ± 8.8,> 10,0.8 ± 0.04,1 ± 0.01,0.8 ± 0.04,1.5 ± 0.22,–,156 to 157,–,–,–
"O=C(/C=C/c1ccc(O)c(O)c1)N1CCN(S(=O)(=O)c2cccc3cnccc23)CC1 [Compound 1a, 3-(3,4-Dihydroxyphenyl)-1-(4-(isoquinolin-5-ylsulfonyl)piperazin-1-yl)prop-2-en-1-one]",9.93,90.9 ± 1.63,100.7 ± 0.999,< 20,13.7 ± 1,0.79,0.8 ± 0.02,0.7 ± 0.06,0.8 ± 0.02,1.2 ± 0.08,–,161 to 162,11.9 ± 4.9,potency similar to the reference compound,–
"O=C(/C=C/c1ccc(O)c(O)c1)N1CCCN(S(=O)(=O)c2cccc3cnccc23)CC1 [Compound 1b, 3-(3,4-Dihydroxyphenyl)-1-(4-(isoquinolin-5-ylsulfonyl)-1,4-diazepan-1-yl)prop-2-en-1-one]",10,96.9 ± 1.13,84.7 ± 1.83,–,7.8 ± 1,2.13,3.1 ± 0.04,–,3.1 ± 0.04,4.1 ± 0.06,dose-dependent activation,–,9.9 ± 1.4,–,12
"Cc1c(C)c2c(c(C)c1O)CCC(C)(C(=O)O)O2 (centres unmarked) [Trolox, reference compound]",–,–,–,–,–,–,–,–,–,–,–,–,12 ± 2.3,–,–
